Source: patent US12565475B2, “Small molecule compound inhibiting signal transmission path of TLR7 and TLR9 and use thereof” (AJOU UNIVERSITY INDUSTRY-ACADEMIC COOPERATION FOUNDATION, priority 2019, dated 2026)

Biological target: T1, TLR8 (Homo sapiens, UniProt Q9NR97)
T1 construct: treated with TIC10-7 for 1 hour, and then treated with TL8-506 as a TLR8 agonist for 4 hours; endogenous in cells; host or cells: THP-1 differentiated with PMA
T1 sequence (Q9NR97 27-1041): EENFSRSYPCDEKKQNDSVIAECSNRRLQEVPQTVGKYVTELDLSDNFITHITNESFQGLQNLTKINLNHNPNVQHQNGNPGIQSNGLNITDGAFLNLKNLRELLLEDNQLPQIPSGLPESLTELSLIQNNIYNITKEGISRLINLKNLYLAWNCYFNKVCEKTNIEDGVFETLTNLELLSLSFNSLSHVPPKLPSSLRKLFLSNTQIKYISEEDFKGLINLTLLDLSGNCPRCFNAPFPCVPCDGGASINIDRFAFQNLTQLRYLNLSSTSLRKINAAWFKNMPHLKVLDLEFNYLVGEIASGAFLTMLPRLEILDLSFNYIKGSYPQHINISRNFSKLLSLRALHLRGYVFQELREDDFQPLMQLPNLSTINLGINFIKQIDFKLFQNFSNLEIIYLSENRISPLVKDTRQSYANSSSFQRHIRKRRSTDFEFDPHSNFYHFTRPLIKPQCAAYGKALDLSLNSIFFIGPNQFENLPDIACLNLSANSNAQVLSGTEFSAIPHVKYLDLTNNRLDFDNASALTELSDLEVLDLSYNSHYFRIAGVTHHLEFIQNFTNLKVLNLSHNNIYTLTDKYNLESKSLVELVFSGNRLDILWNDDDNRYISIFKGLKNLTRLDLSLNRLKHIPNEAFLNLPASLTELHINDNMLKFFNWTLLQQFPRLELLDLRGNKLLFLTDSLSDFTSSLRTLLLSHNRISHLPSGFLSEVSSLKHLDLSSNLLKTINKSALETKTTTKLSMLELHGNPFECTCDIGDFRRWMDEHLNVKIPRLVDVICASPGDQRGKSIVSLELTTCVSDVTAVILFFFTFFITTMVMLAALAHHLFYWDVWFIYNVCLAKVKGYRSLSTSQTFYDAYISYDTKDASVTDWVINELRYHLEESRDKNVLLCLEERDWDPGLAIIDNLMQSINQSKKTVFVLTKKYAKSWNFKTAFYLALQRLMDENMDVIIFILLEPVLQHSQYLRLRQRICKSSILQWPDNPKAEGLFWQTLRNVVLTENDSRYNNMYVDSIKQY
Test: TLR8-mediated TNF-α secretion (TL8-506) in PMA-differentiated THP-1 cells, ELISA
Format: cell-based
Conditions: differentiated THP-1, 10 or 20 μM
Experimental: A murine macrophage cell line (RAW 264.7) was obtained from the Korean Cell Line Bank (KCLB) and the Korean Cell Line Research Foundation (KCLRF). The cells were cultured in DMEM (Dulbecco's modified Eagle's medium; HyClone Laboratories, Inc., San Angelo, Texas, USA) supplemented with 1% penicillin/streptomycin (HyClone Laboratories, Inc.) antibiotic mixture and 10% fetal bovine serum (FBS; Thermo Fisher Scientific, Inc., Waltham, MA, USA). A human monocytic cell line (THP-1) was provided by Dr. Chang-Hee Suh, Ajou University School of Medicine, Suwon, Korea. […]
Agonists specific to TLR1/TLR2 (Pam3CSK4), TLR2/TLR6 (FSL-1), TLR3 (Poly I:C), TLR7 (imiquimod), and TLR8 (TL8-506) were purchased from InvivoGen Ltd. (Hong-Kong, China), and a TLR4-specific agonist (LPS from E. coli O111:B4) was purchased from Sigma-Aldrich, Inc. For TLR9-specific stimulation, class C CpG-ODN (ODN2395, 5′-TCGTCGTTTTCGGCGCGCGCCG-3′) having full phosphorothioate backbone modification was synthesized (Bioneer, Inc., Daejeon, Korea). […] The cells were treated with test compounds or a control medium for 1 hour, and then stimulated with a TLR agonist for 4 hours, or 24 hours in the case of poly(I:C), and the cytokine secretion was monitored. […]

SMILES: COc1ccc(CNc2ncc(-c3ccc4c(c3)OCO4)n2C)c(OC)c1 [TIC10-7, 5-(2H-1,3-benzodioxol-5-yl)-N-[(2,4-dimethoxyphenyl)methyl]-1-methyl-1H-imidazol-2-amine]
- TLR8-mediated TNF-α secretion: least affected
